PubChem BioAssay (NCI)
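48-hour exposure; five concentrations; linearly interpolated endpoints. GI50: concentration for 50% inhibition of growth. TGI is the concentration that stops growth completely.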

Assays:
Assay in all cases: growth of human tumour cells (NCI), 48 h
786-0 renal = system: 786-0 renal
A498 renal = system: A498 renal
A549 NSCLC = system: A549 NSCLC
ACHN renal = system: ACHN renal
BT-549 breast = system: BT-549 breast
CAKI-1 renal = system: CAKI-1 renal
CCRF-CEM leukemia = system: CCRF-CEM leukemia
COLO 205 colon = system: COLO 205 colon
DU-145 prostate = system: DU-145 prostate
EKVX NSCLC = system: EKVX NSCLC
HCC-2998 colon = system: HCC-2998 colon
HCT-116 colon = system: HCT-116 colon
HCT-15 colon = system: HCT-15 colon
HL-60(TB) leukemia = system: HL-60(TB) leukemia
HOP-92 NSCLC = system: HOP-92 NSCLC
HS 578T breast = system: HS 578T breast
HT29 colon = system: HT29 colon
IGROV1 ovarian = system: IGROV1 ovarian
K-562 leukemia = system: K-562 leukemia
KM12 colon = system: KM12 colon
LOX IMVI melanoma = system: LOX IMVI melanoma
M14 melanoma = system: M14 melanoma
MALME-3M melanoma = system: MALME-3M melanoma
MCF7 breast = system: MCF7 breast
MDA-MB-231 breast = system: MDA-MB-231 breast
MDA-MB-435 = system: MDA-MB-435
MOLT-4 leukemia = system: MOLT-4 leukemia
NCI-H226 lung = system: NCI-H226 lung
NCI-H23 lung = system: NCI-H23 lung
NCI-H460 lung = system: NCI-H460 lung
NCI-H522 lung = system: NCI-H522 lung
NCI/ADR-RES ovarian = system: NCI/ADR-RES ovarian
OVCAR-3 ovarian = system: OVCAR-3 ovarian
OVCAR-4 ovarian = system: OVCAR-4 ovarian
OVCAR-5 ovarian = system: OVCAR-5 ovarian
OVCAR-8 ovarian = system: OVCAR-8 ovarian
PC-3 prostate = system: PC-3 prostate
RPMI-8226 leukemia = system: RPMI-8226 leukemia
RXF 393 renal = system: RXF 393 renal
SF-268 CNS = system: SF-268 CNS
SF-295 CNS = system: SF-295 CNS
SF-539 CNS = system: SF-539 CNS
SK-MEL-2 melanoma = system: SK-MEL-2 melanoma
SK-MEL-28 melanoma = system: SK-MEL-28 melanoma
SK-MEL-5 melanoma = system: SK-MEL-5 melanoma
SK-OV-3 ovarian = system: SK-OV-3 ovarian
SN12C renal = system: SN12C renal
SNB-19 CNS = system: SNB-19 CNS
SNB-75 CNS = system: SNB-75 CNS
SR leukemia = system: SR leukemia
SW-620 colon = system: SW-620 colon
T-47D breast = system: T-47D breast
TK-10 renal = system: TK-10 renal
U251 CNS = system: U251 CNS
UACC-257 melanoma = system: UACC-257 melanoma
UACC-62 melanoma = system: UACC-62 melanoma
UO-31 renal = system: UO-31 renal
HOP-62 NSCLC = system: HOP-62 NSCLC

Question: Which results are given for `Cc1[nH]nc(C(=O)N/N=C/c2ccccc2Cl)c1N=NN(C)C`?
Answer: TGI (786-0 renal): > 100 µM; TGI (A498 renal): > 100 µM; TGI (A549 NSCLC): > 100 µM; TGI (ACHN renal): > 100 µM; TGI (BT-549 breast): 12.8 µM; TGI (CAKI-1 renal): > 100 µM; TGI (CCRF-CEM leukemia): > 100 µM; TGI (COLO 205 colon): > 100 µM; TGI (DU-145 prostate): > 23.4 µM; TGI (EKVX NSCLC): > 100 µM; TGI (HCC-2998 colon): > 100 µM; TGI (HCT-116 colon): > 100 µM; TGI (HCT-15 colon): > 100 µM; TGI (HL-60(TB) leukemia): > 100 µM; TGI (HOP-92 NSCLC): > 100 µM; TGI (HS 578T breast): > 61.9 µM; TGI (HT29 colon): > 100 µM; TGI (IGROV1 ovarian): > 100 µM; TGI (K-562 leukemia): > 100 µM; TGI (KM12 colon): > 100 µM; TGI (LOX IMVI melanoma): > 100 µM; TGI (M14 melanoma): > 100 µM; TGI (MALME-3M melanoma): > 100 µM; TGI (MCF7 breast): > 100 µM; TGI (MDA-MB-231 breast): > 100 µM; TGI (MDA-MB-435): > 100 µM; TGI (MOLT-4 leukemia): > 100 µM; TGI (NCI-H226 lung): > 100 µM; TGI (NCI-H23 lung): > 100 µM; TGI (NCI-H460 lung): > 100 µM; TGI (NCI-H522 lung): > 100 µM; TGI (NCI/ADR-RES ovarian): > 27.7 µM; TGI (OVCAR-3 ovarian): > 100 µM; TGI (OVCAR-4 ovarian): > 100 µM; TGI (OVCAR-5 ovarian): > 100 µM; TGI (OVCAR-8 ovarian): > 100 µM; TGI (PC-3 prostate): > 100 µM; TGI (RPMI-8226 leukemia): > 100 µM; TGI (RXF 393 renal): > 100 µM; TGI (SF-268 CNS): > 100 µM; TGI (SF-295 CNS): > 100 µM; TGI (SF-539 CNS): > 29.9 µM; TGI (SK-MEL-2 melanoma): > 100 µM; TGI (SK-MEL-28 melanoma): > 100 µM; TGI (SK-MEL-5 melanoma): > 100 µM; TGI (SK-OV-3 ovarian): > 100 µM; TGI (SN12C renal): > 100 µM; TGI (SNB-19 CNS): > 100 µM; TGI (SNB-75 CNS): > 100 µM; TGI (SR leukemia): > 100 µM; TGI (SW-620 colon): > 100 µM; TGI (T-47D breast): > 100 µM; TGI (TK-10 renal): > 100 µM; TGI (U251 CNS): > 100 µM; TGI (UACC-257 melanoma): > 100 µM; TGI (UACC-62 melanoma): > 100 µM; TGI (UO-31 renal): > 100 µM

Question: What does the source list for `COc1cc(C(=O)NN=C2c3ccccc3-c3ccccc32)cc(OC)c1OC`?
Answer: GI50 (786-0 renal): 6.86 µM; TGI (786-0 renal): 31.3 µM; GI50 (A498 renal): 2.95 µM; TGI (A498 renal): 13.9 µM; GI50 (A549 NSCLC): 3.26 µM; TGI (A549 NSCLC): > 100 µM; GI50 (ACHN renal): 4.21 µM; TGI (ACHN renal): 24.2 µM; GI50 (BT-549 breast): 3.78 µM; TGI (BT-549 breast): 28.9 µM; GI50 (CAKI-1 renal): 2.14 µM; TGI (CAKI-1 renal): 7.92 µM; GI50 (CCRF-CEM leukemia): 3.53 µM; TGI (CCRF-CEM leukemia): > 100 µM; GI50 (COLO 205 colon): 3.49 µM; TGI (COLO 205 colon): 32.1 µM; GI50 (DU-145 prostate): 5.34 µM; TGI (DU-145 prostate): 32.8 µM; GI50 (HCC-2998 colon): 10.5 µM; TGI (HCC-2998 colon): 57.8 µM; GI50 (HCT-116 colon): 2.71 µM; TGI (HCT-116 colon): > 100 µM; GI50 (HCT-15 colon): 2.63 µM; TGI (HCT-15 colon): > 100 µM; GI50 (HL-60(TB) leukemia): 2.21 µM; TGI (HL-60(TB) leukemia): 7.12 µM; GI50 (HOP-62 NSCLC): 5.15 µM; TGI (HOP-62 NSCLC): 35.9 µM; GI50 (HS 578T breast): 3.5 µM; TGI (HS 578T breast): 26.3 µM; GI50 (HT29 colon): 2.32 µM; TGI (HT29 colon): 56.6 µM; GI50 (IGROV1 ovarian): 3.47 µM; TGI (IGROV1 ovarian): 32.9 µM; GI50 (K-562 leukemia): 0.829 µM; TGI (K-562 leukemia): 26.2 µM; GI50 (KM12 colon): 2.15 µM; TGI (KM12 colon): > 100 µM; GI50 (LOX IMVI melanoma): 2.78 µM; TGI (LOX IMVI melanoma): 49.4 µM; GI50 (M14 melanoma): 2.58 µM; TGI (M14 melanoma): 92.4 µM; GI50 (MALME-3M melanoma): 2.45 µM; TGI (MALME-3M melanoma): 16.7 µM; GI50 (MCF7 breast): 2.28 µM; TGI (MCF7 breast): > 100 µM; GI50 (MDA-MB-231 breast): 2.93 µM; TGI (MDA-MB-231 breast): 20 µM; GI50 (MDA-MB-435): 0.3 µM; TGI (MDA-MB-435): 1.46 µM; GI50 (MOLT-4 leukemia): 5.12 µM; TGI (MOLT-4 leukemia): > 100 µM; GI50 (NCI-H226 lung): 14.8 µM; TGI (NCI-H226 lung): 73.9 µM; GI50 (NCI-H23 lung): 3.94 µM; TGI (NCI-H23 lung): 41.4 µM; GI50 (NCI-H460 lung): 3.17 µM; TGI (NCI-H460 lung): 26.6 µM; GI50 (NCI-H522 lung): 1.77 µM; TGI (NCI-H522 lung): 5.8 µM; GI50 (NCI/ADR-RES ovarian): 2.06 µM; TGI (NCI/ADR-RES ovarian): 11.7 µM; GI50 (OVCAR-3 ovarian): 2.33 µM; TGI (OVCAR-3 ovarian): 10.6 µM; GI50 (OVCAR-4 ovarian): 17.5 µM; TGI (OVCAR-4 ovarian): > 100 µM; GI50 (OVCAR-5 ovarian): 7.95 µM; TGI (OVCAR-5 ovarian): > 100 µM; GI50 (OVCAR-8 ovarian): 4.93 µM; TGI (OVCAR-8 ovarian): 39 µM; GI50 (PC-3 prostate): 2.72 µM; TGI (PC-3 prostate): 25 µM; GI50 (RPMI-8226 leukemia): 3.5 µM; TGI (RPMI-8226 leukemia): > 100 µM; GI50 (RXF 393 renal): 2.76 µM; TGI (RXF 393 renal): 29.3 µM; GI50 (SF-268 CNS): 4.57 µM; TGI (SF-268 CNS): 27.7 µM; GI50 (SF-295 CNS): 1.99 µM; TGI (SF-295 CNS): 7.13 µM; GI50 (SF-539 CNS): 2.1 µM; TGI (SF-539 CNS): 5.32 µM; GI50 (SK-MEL-2 melanoma): 2.84 µM; TGI (SK-MEL-2 melanoma): 12.7 µM; GI50 (SK-MEL-28 melanoma): 6.26 µM; TGI (SK-MEL-28 melanoma): > 100 µM; GI50 (SK-MEL-5 melanoma): 2.65 µM; TGI (SK-MEL-5 melanoma): 18 µM; GI50 (SK-OV-3 ovarian): 4.12 µM; TGI (SK-OV-3 ovarian): > 100 µM; GI50 (SN12C renal): 4.48 µM; TGI (SN12C renal): 41.2 µM; GI50 (SNB-19 CNS): 6.56 µM; TGI (SNB-19 CNS): 43.5 µM; GI50 (SNB-75 CNS): 2.86 µM; TGI (SNB-75 CNS): 21 µM; GI50 (SR leukemia): 0.339 µM; TGI (SR leukemia): 10.6 µM; GI50 (SW-620 colon): 2.53 µM; TGI (SW-620 colon): > 100 µM; GI50 (T-47D breast): 3.9 µM; TGI (T-47D breast): 65.5 µM; GI50 (TK-10 renal): 7.86 µM; TGI (TK-10 renal): 32.6 µM; GI50 (U251 CNS): 3.3 µM; TGI (U251 CNS): 20.3 µM; GI50 (UACC-257 melanoma): 3.33 µM; TGI (UACC-257 melanoma): 34.2 µM; GI50 (UACC-62 melanoma): 3.09 µM; TGI (UACC-62 melanoma): 24.8 µM; GI50 (UO-31 renal): 4.02 µM; TGI (UO-31 renal): 75.3 µM
